Assay results as given in PubChem BioAssay (NCI).
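Compound exposure: 48 hours, 5 concentrations, 96-well plates. The concentration for 50% growth inhibition is given as GI50. TGI: concentration producing complete growth inhibition.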

What was measured:
Experiment in all cases: NCI-60 cell line screen, 48 h
[1] = system: HCT-15 colon
[2] = system: SNB-75 CNS
[3] = system: SK-MEL-28 melanoma
[4] = system: IGROV1 ovarian
[5] = system: RPMI-8226 leukemia
[6] = system: HS 578T breast
[7] = system: ACHN renal
[8] = system: MALME-3M melanoma
[9] = system: HOP-62 NSCLC
[10] = system: K-562 leukemia
[11] = system: NCI-H226 lung
[12] = system: LOX IMVI melanoma
[13] = system: RXF 393 renal
[14] = system: SK-MEL-5 melanoma
[15] = system: NCI-H460 lung
[16] = system: A498 renal
[17] = system: UACC-62 melanoma
[18] = system: UACC-257 melanoma
[19] = system: U251 CNS
[20] = system: CAKI-1 renal
[21] = system: BT-549 breast
[22] = system: OVCAR-5 ovarian
[23] = system: SNB-19 CNS
[24] = system: MOLT-4 leukemia
[25] = system: T-47D breast
[26] = system: PC-3 prostate
[27] = system: SF-295 CNS
[28] = system: OVCAR-4 ovarian
[29] = system: NCI-H522 lung
[30] = system: SR leukemia
[31] = system: MDA-MB-435
[32] = system: UO-31 renal
[33] = system: KM12 colon
[34] = system: COLO 205 colon
[35] = system: HCC-2998 colon
[36] = system: NCI-H23 lung
[37] = system: HCT-116 colon
[38] = system: EKVX NSCLC
[39] = system: A549 NSCLC
[40] = system: DU-145 prostate
[41] = system: SF-268 CNS
[42] = system: HOP-92 NSCLC
[43] = system: MCF7 breast
[44] = system: NCI/ADR-RES ovarian
[45] = system: HT29 colon
[46] = system: M14 melanoma
[47] = system: SF-539 CNS
[48] = system: SN12C renal
[49] = system: MDA-MB-231 breast
[50] = system: SK-OV-3 ovarian
[51] = system: SW-620 colon
[52] = system: OVCAR-8 ovarian
[53] = system: 786-0 renal
[54] = system: SK-MEL-2 melanoma
[55] = system: OVCAR-3 ovarian
[56] = system: CCRF-CEM leukemia
[57] = system: TK-10 renal
[58] = system: HL-60(TB) leukemia

O=c1oc2ccc(Br)cc2c(=O)n1-c1ccc(F)cc1F
GI50 [1]: 3.04 µM
TGI [1]: 12.8 µM
GI50 [2]: 1.02 µM
TGI [2]: 3.98 µM
GI50 [3]: 1.04 µM
TGI [3]: 5.8 µM
GI50 [4]: 1.94 µM
TGI [4]: 24.8 µM
GI50 [5]: 1.66 µM
TGI [5]: 7.07 µM
GI50 [6]: 2.11 µM
TGI [6]: 8.01 µM
GI50 [7]: 2.44 µM
TGI [7]: 7.99 µM
GI50 [8]: 1.59 µM
TGI [8]: 5.87 µM
GI50 [9]: 2.45 µM
TGI [9]: 8.3 µM
GI50 [10]: 2.4 µM
TGI [10]: > 100 µM
GI50 [11]: 2.32 µM
TGI [11]: 13.8 µM
GI50 [12]: 2.79 µM
TGI [12]: 12.4 µM
GI50 [13]: 2.27 µM
TGI [13]: 6.34 µM
GI50 [14]: 1.38 µM
TGI [14]: 2.82 µM
GI50 [15]: 2.79 µM
TGI [15]: 25.6 µM
GI50 [16]: 1.16 µM
TGI [16]: 3.02 µM
GI50 [17]: 1.01 µM
TGI [17]: 4.51 µM
GI50 [18]: 1.78 µM
TGI [18]: 6.67 µM
GI50 [19]: 2.51 µM
TGI [19]: 31.5 µM
GI50 [20]: 1.72 µM
TGI [20]: 6.1 µM
GI50 [21]: 1.79 µM
TGI [21]: 5.5 µM
GI50 [22]: 3.79 µM
TGI [22]: > 100 µM
GI50 [23]: 2.3 µM
TGI [23]: > 100 µM
GI50 [24]: 3.12 µM
TGI [24]: > 100 µM
GI50 [25]: 1.77 µM
TGI [25]: 6.94 µM
GI50 [26]: 2.85 µM
TGI [26]: 12.7 µM
GI50 [27]: 1.88 µM
TGI [27]: 3.71 µM
GI50 [28]: 1.65 µM
TGI [28]: 8.45 µM
GI50 [29]: 2.6 µM
TGI [29]: 14.9 µM
GI50 [30]: 2.67 µM
TGI [30]: > 100 µM
GI50 [31]: 2.85 µM
TGI [31]: 10.4 µM
GI50 [32]: 1.28 µM
TGI [32]: 5.93 µM
GI50 [33]: 2.75 µM
TGI [33]: 8.49 µM
GI50 [34]: 3.92 µM
TGI [34]: 16.4 µM
GI50 [35]: 3.54 µM
TGI [35]: 18.4 µM
GI50 [36]: 2.55 µM
TGI [36]: 10.1 µM
GI50 [37]: 2.48 µM
TGI [37]: 8.37 µM
GI50 [38]: 2.03 µM
TGI [38]: 9.32 µM
GI50 [39]: 3.17 µM
TGI [39]: > 100 µM
GI50 [40]: 3.82 µM
TGI [40]: 27.7 µM
GI50 [41]: 2.62 µM
TGI [41]: 21.8 µM
GI50 [42]: 0.425 µM
TGI [42]: 4.74 µM
GI50 [43]: 2.57 µM
TGI [43]: > 100 µM
GI50 [44]: 2.9 µM
TGI [44]: 30.5 µM
GI50 [45]: 3.45 µM
TGI [45]: 27.8 µM
GI50 [46]: 1.59 µM
TGI [46]: 7.55 µM
GI50 [47]: 2.17 µM
TGI [47]: 9.21 µM
GI50 [48]: 2 µM
TGI [48]: 8.61 µM
GI50 [49]: 2.11 µM
TGI [49]: 6.96 µM
GI50 [50]: 0.398 µM
TGI [50]: 3.38 µM
GI50 [51]: 2.96 µM
TGI [51]: 16.7 µM
GI50 [52]: 2.81 µM
TGI [52]: 24.2 µM
GI50 [53]: 3.23 µM
TGI [53]: 11.6 µM
GI50 [54]: 2.12 µM
TGI [54]: 6.13 µM
GI50 [55]: 2.41 µM
TGI [55]: 11.4 µM
GI50 [56]: 3.91 µM
TGI [56]: > 100 µM
GI50 [57]: 4.53 µM
TGI [57]: 19.2 µM

O=C(N/N=C/c1ccc([N+](=O)[O-])o1)c1ccc(O)cc1
GI50 [1]: 4.06 µM
TGI [1]: 25.4 µM
GI50 [2]: 17.4 µM
TGI [2]: 83.2 µM
GI50 [3]: 14.7 µM
TGI [3]: > 100 µM
GI50 [4]: 5.19 µM
TGI [4]: 23.1 µM
GI50 [5]: 3.35 µM
TGI [5]: 48.3 µM
GI50 [6]: 21.7 µM
TGI [6]: > 100 µM
GI50 [7]: 5.46 µM
TGI [7]: > 100 µM
GI50 [8]: 1.11 µM
TGI [8]: 2.56 µM
GI50 [9]: 6.2 µM
TGI [9]: > 100 µM
GI50 [11]: 12.7 µM
TGI [11]: > 100 µM
GI50 [12]: 2.15 µM
TGI [12]: 16.9 µM
GI50 [13]: 12.9 µM
TGI [13]: 73.8 µM
GI50 [14]: 1.47 µM
TGI [14]: 2.88 µM
GI50 [15]: 3.37 µM
TGI [15]: > 100 µM
GI50 [58]: 2.48 µM
TGI [58]: 6.9 µM
GI50 [17]: 2.21 µM
TGI [17]: 6.93 µM
GI50 [18]: 4.97 µM
TGI [18]: 18.8 µM
GI50 [19]: 5.17 µM
TGI [19]: > 100 µM
GI50 [20]: 7.26 µM
TGI [20]: > 100 µM
GI50 [21]: 10.7 µM
TGI [21]: 28 µM
GI50 [22]: 9.32 µM
TGI [22]: > 100 µM
GI50 [23]: 5.39 µM
TGI [23]: > 100 µM
GI50 [24]: 5.69 µM
TGI [24]: > 100 µM
GI50 [25]: 6.96 µM
TGI [25]: 32.7 µM
GI50 [26]: 27 µM
TGI [26]: > 100 µM
GI50 [27]: 4.26 µM
TGI [27]: > 100 µM
GI50 [28]: 1.72 µM
TGI [28]: 4.51 µM
GI50 [29]: 6.59 µM
TGI [29]: 26.7 µM
GI50 [30]: 2.84 µM
TGI [30]: > 100 µM
GI50 [31]: 1.65 µM
TGI [31]: 3.19 µM
GI50 [32]: 23.7 µM
TGI [32]: > 100 µM
GI50 [33]: 5.43 µM
TGI [33]: > 100 µM
GI50 [34]: 4.63 µM
TGI [34]: 16.1 µM
GI50 [35]: 4.98 µM
TGI [35]: > 100 µM
GI50 [36]: 2.97 µM
TGI [36]: 11.4 µM
GI50 [37]: 3.63 µM
TGI [37]: 12 µM
GI50 [38]: 8.46 µM
TGI [38]: 42.9 µM
GI50 [39]: 4.71 µM
TGI [39]: > 100 µM
GI50 [40]: 6.38 µM
TGI [40]: > 100 µM
GI50 [41]: 6.73 µM
TGI [41]: > 100 µM
GI50 [42]: 17.5 µM
TGI [42]: 80.9 µM
GI50 [43]: 2.84 µM
TGI [43]: 14 µM
GI50 [44]: 5.54 µM
TGI [44]: > 100 µM
GI50 [45]: 5.88 µM
TGI [45]: > 100 µM
GI50 [46]: 3.67 µM
TGI [46]: 11.3 µM
GI50 [47]: 4.39 µM
TGI [47]: 17 µM
GI50 [48]: 4.03 µM
TGI [48]: > 100 µM
GI50 [49]: 10.8 µM
TGI [49]: > 100 µM
GI50 [50]: 17.5 µM
TGI [50]: > 100 µM
GI50 [51]: 3.85 µM
TGI [51]: > 100 µM
GI50 [52]: 4.86 µM
TGI [52]: > 100 µM
GI50 [53]: 9.17 µM
TGI [53]: 21.4 µM
GI50 [54]: 11.3 µM
TGI [54]: > 100 µM
GI50 [55]: 8.33 µM
TGI [55]: 36.1 µM
GI50 [56]: 0.804 µM
TGI [56]: 70.5 µM
GI50 [57]: > 100 µM
TGI [57]: > 100 µM
